Test results published in PubChem BioAssay AID210 (DTP/NCI, 2004).
Where “and” joins values, the source holds several entries; their conditions need not be identical. Equal entries are not always repeated. Inconclusive results and toxic doses are left out.

System: CD2F1 mice, ip Colon 26 adenocarcinoma, median survival T/C
Test: NCI In Vivo Anticancer Drug Screen. Data for tumor model Colon 26 Adenocarcinoma (intraperitoneal) in CD2F1 (CDF1) mice
Details: endpoint: median survival time, higher = longer survival
Protocol: The antitumor activity of compounds was measured in mice bearing transplantable tumors. Survival or tumor size were measured and the results are expressed as the measurement made in the treated group (T) divided by the measurement made in the vehicle treated control group (C). The tumor model used in this assay is Colon 26 Adenocarcinoma (intraperitoneal) in CD2F1 (CDF1) mice

[1] = dose: 12.0 mg/kg/injection, schedule: Q07DX003 (iv), vehicle: saline

COc1cccc2c1C(=O)c1c(O)c3c(c(O)c1C2=O)C[C@@](O)(C(=O)CO)C[C@@H]3OC1CC(N)C(O)C(C)O1 (stereo partly specified)
T/C (dose: 0.25 mg/kg/injection, schedule: Q01DX009 (ip), vehicle: saline): 151 % of control | T/C (dose: 0.38 mg/kg/injection, schedule: Q04DX003 (ip), vehicle: water): 113 % of control | T/C (dose: 0.5 mg/kg/injection, schedule: Q01DX009 (ip), vehicle: saline): 154 % of control | T/C (dose: 0.75 mg/kg/injection, schedule: Q04DX003 (ip), vehicle: water): 117 % of control | T/C (dose: 1.0 mg/kg/injection, schedule: Q01DX009 (ip), vehicle: saline): 243 % of control | T/C (dose: 1.5 mg/kg/injection, schedule: Q04DX003 (ip), vehicle: water): 106 % of control | T/C (dose: 1.5 mg/kg/injection, schedule: Q07DX003 (iv), vehicle: saline): 111 % of control | T/C (dose: 1.73 mg/kg/injection, schedule: Q04DX003 (ip), vehicle: water): 157 % of control | T/C (dose: 2.0 mg/kg/injection, schedule: Q01DX009 (ip), vehicle: saline): 310 % of control | T/C (dose: 2.0 mg/kg/injection, schedule: Q04DX003 (ip), vehicle: saline): 278 % of control | T/C (dose: 3.0 mg/kg/injection, schedule: Q04DX003 (ip), vehicle: water): 91 % of control | T/C (dose: 3.0 mg/kg/injection, schedule: Q07DX003 (iv), vehicle: saline): 97 % of control | T/C (dose: 3.3 mg/kg/injection, schedule: Q07DX002 (iv), vehicle: saline): 105 % of control | T/C (dose: 3.7 mg/kg/injection, schedule: Q07DX003 (iv), vehicle: saline): 112 % of control | T/C (dose: 4.0 mg/kg/injection, schedule: Q04DX003 (ip), vehicle: saline): 334 % of control | T/C (dose: 4.3 mg/kg/injection, schedule: Q07DX002 (iv), vehicle: saline): 106 % of control | T/C (dose: 4.5 mg/kg/injection, schedule: Q07DX002 (iv), vehicle: saline): 108 % of control | T/C (dose: 4.5 mg/kg/injection, schedule: Q07DX002 (sc), vehicle: saline): 101 % of control | T/C (dose: 4.8 mg/kg/injection, schedule: Q04DX003 (ip), vehicle: water): 152 % of control | T/C (dose: 4.8 mg/kg/injection, schedule: Q07DX003 (iv), vehicle: saline): 107 % of control and 108 % of control | T/C (dose: 5.4 mg/kg/injection, schedule: Q07DX002 (iv), vehicle: saline): 111 % of control | T/C (dose: 5.8 mg/kg/injection, schedule: Q07DX003 (iv), vehicle: saline): 115 % of control | T/C (dose: 6.0 mg/kg/injection, schedule: Q04DX003 (ip), vehicle: water): 120 % of control | T/C (dose: 6.3 mg/kg/injection, schedule: Q07DX002 (ip), vehicle: saline): 197 % of control | T/C (dose: 6.3 mg/kg/injection, schedule: Q07DX002 (iv), vehicle: saline): 105 % of control and 106 % of control | T/C (dose: 6.3 mg/kg/injection, schedule: Q07DX003 (iv), vehicle: saline): 113 % of control and 114 % of control and 115 % of control | T/C (dose: 6.5 mg/kg/injection, schedule: Q07DX002 (iv), vehicle: saline): 122 % of control | T/C (dose: 7.3 mg/kg/injection, schedule: Q07DX002 (iv), vehicle: saline): 117 % of control | T/C (dose: 7.3 mg/kg/injection, schedule: Q07DX002 (sc), vehicle: saline): 114 % of control | T/C (dose: 8.1 mg/kg/injection, schedule: Q07DX002 (iv), vehicle: saline): 104 % of control and 112 % of control | T/C (dose: 8.1 mg/kg/injection, schedule: Q07DX003 (iv), vehicle: saline): 111 % of control and 119 % of control (2×) | T/C (dose: 8.7 mg/kg/injection, schedule: Q07DX002 (iv), vehicle: saline): 121 % of control | T/C (dose: 9.0 mg/kg/injection, schedule: Q07DX003 (iv), vehicle: saline): 111 % of control | T/C (dose: 9.3 mg/kg/injection, schedule: Q07DX002 (iv), vehicle: saline): 109 % of control | T/C (dose: 9.8 mg/kg/injection, schedule: Q07DX002 (iv), vehicle: saline): 124 % of control | T/C (dose: 10.5 mg/kg/injection, schedule: Q07DX002 (ip), vehicle: saline): 205 % of control | T/C (dose: 10.5 mg/kg/injection, schedule: Q07DX002 (iv), vehicle: saline): 111 % of control and 88 % of control | T/C (dose: 10.5 mg/kg/injection, schedule: Q07DX003 (iv), vehicle: saline): 120 % of control and 94 % of control | T/C (dose: 12.0 mg/kg/injection, schedule: Q04DX003 (ip), vehicle: water): 116 % of control | T/C (dose: 12.0 mg/kg/injection, schedule: Q07DX002 (iv), vehicle: saline): 123 % of control | T/C (dose: 12.0 mg/kg/injection, schedule: Q07DX002 (sc), vehicle: saline): 122 % of control | T/C [1]: 96 % of control | T/C (dose: 14.0 mg/kg/injection, schedule: Q07DX002 (iv), vehicle: saline): 115 % of control | T/C (dose: 14.0 mg/kg/injection, schedule: Q07DX003 (iv), vehicle: saline): 117 % of control | T/C (dose: 19.0 mg/kg/injection, schedule: Q07DX002 (sc), vehicle: saline): 155 % of control

CN(C)C=O
T/C (dose: 100.0 mg/kg/injection, schedule: Q04DX002 (ip), vehicle: saline): 93 % of control | T/C (dose: 400.0 mg/kg/injection, schedule: Q04DX002 (ip), vehicle: saline): 90 % of control | T/C (dose: 800.0 mg/kg/injection, schedule: Q04DX002 (ip), vehicle: saline): 168 % of control | T/C (dose: 1600.0 mg/kg/injection, schedule: Q04DX002 (ip), vehicle: saline): 93 % of control

CN(C)CCNc1ccc(O)c2c1C(=O)c1ccccc1C2=O
T/C (dose: 10.0 mg/kg/injection, schedule: Q01DX009 (ip), vehicle: acid diluted with saline): 121 % of control | T/C (dose: 20.0 mg/kg/injection, schedule: Q01DX009 (ip), vehicle: acid diluted with saline): 104 % of control and 115 % of control | T/C (dose: 40.0 mg/kg/injection, schedule: Q01DX009 (ip), vehicle: acid diluted with saline): 103 % of control | T/C (dose: 80.0 mg/kg/injection, schedule: Q01DX009 (ip), vehicle: acid diluted with saline): 115 % of control and 120 % of control

CNCCNc1ccc(NCCNC)c2c1C(=O)c1ccccc1C2=O
T/C (dose: 1.0 mg/kg/injection, schedule: Q01DX009 (ip), vehicle: acid diluted with saline): 154 % of control | T/C (dose: 1.5 mg/kg/injection, schedule: Q01DX009 (ip), vehicle: acid diluted with saline): 205 % of control | T/C (dose: 2.0 mg/kg/injection, schedule: Q01DX009 (ip), vehicle: acid diluted with saline): 219 % of control | T/C (dose: 3.0 mg/kg/injection, schedule: Q01DX009 (ip), vehicle: acid diluted with saline): 236 % of control | T/C (dose: 4.0 mg/kg/injection, schedule: Q01DX009 (ip), vehicle: acid diluted with saline): 215 % of control | T/C (dose: 6.0 mg/kg/injection, schedule: Q01DX009 (ip), vehicle: acid diluted with saline): 226 % of control | T/C (dose: 8.0 mg/kg/injection, schedule: Q01DX009 (ip), vehicle: acid diluted with saline): 225 % of control | T/C (dose: 12.0 mg/kg/injection, schedule: Q01DX009 (ip), vehicle: acid diluted with saline): 236 % of control | T/C (dose: 16.0 mg/kg/injection, schedule: Q01DX009 (ip), vehicle: acid diluted with saline): 115 % of control

OC(C1CO1)C(O)C1CO1 (stereo unspecified)
T/C (dose: 0.5 mg/kg/injection, schedule: Q04DX003 (ip), vehicle: saline): 110 % of control | T/C (dose: 1.0 mg/kg/injection, schedule: Q04DX003 (ip), vehicle: saline): 109 % of control | T/C (dose: 7.6 mg/kg/injection, schedule: Q07DX003 (iv), vehicle: saline): 165 % of control | T/C (dose: 8.0 mg/kg/injection, schedule: Q04DX003 (ip), vehicle: saline): 338 % of control | T/C [1]: 193 % of control

CNc1nc2c(N)ncnc2n1C1OC(CO)C(O)C1O (stereo unspecified)
T/C (dose: 0.78 mg/kg/injection, schedule: Q04DX002 (ip), vehicle: saline): 92 % of control | T/C (dose: 1.56 mg/kg/injection, schedule: Q04DX002 (ip), vehicle: saline): 93 % of control | T/C (dose: 3.13 mg/kg/injection, schedule: Q04DX002 (ip), vehicle: saline): 92 % of control | T/C (dose: 6.25 mg/kg/injection, schedule: Q04DX002 (ip), vehicle: saline): 96 % of control | T/C (dose: 12.5 mg/kg/injection, schedule: Q04DX002 (ip), vehicle: saline): 102 % of control | T/C (dose: 25.0 mg/kg/injection, schedule: Q04DX002 (ip), vehicle: saline): 96 % of control

O=c1n(CC2CO2)c(=O)n(CC2CO2)c(=O)n1CC1CO1 (stereo unspecified)
T/C (dose: 25.0 mg/kg/injection, schedule: Q04DX003 (ip), vehicle: saline): 237 % of control | T/C (dose: 40.0 mg/kg/injection, schedule: Q04DX003 (ip), vehicle: saline): 292 % of control | T/C (dose: 50.0 mg/kg/injection, schedule: Q04DX003 (ip), vehicle: saline): 237 % of control and 292 % of control | T/C (dose: 60.0 mg/kg/injection, schedule: Q04DX003 (ip), vehicle: saline): 292 % of control | T/C (dose: 100.0 mg/kg/injection, schedule: Q04DX003 (ip), vehicle: saline): 193 % of control and 237 % of control | T/C (dose: 200.0 mg/kg/injection, schedule: Q04DX003 (ip), vehicle: saline): 237 % of control and 292 % of control | T/C (dose: 300.0 mg/kg/injection, schedule: Q04DX003 (ip), vehicle: saline): 292 % of control | T/C (dose: 400.0 mg/kg/injection, schedule: Q04DX003 (ip), vehicle: saline): 213 % of control and 292 % of control
